Results: ChEMBL document CHEMBL4602605, “Fluoroquinolones structural and medicinal developments (2013-2018): Where are we now?” (Bioorg Med Chem, 2019)
Values after ≈ are worked out from the molar mass of the structure shown.

What follows are compounds tested on Mycobacterium tuberculosis (assay: Antimicrobial activity against rifampin and isoniazid resistant Mycobacterium tuberculosis Beijing harboring rpoB Ser 531-Leu 315 and katC Ser-Thr mutant incubated for 10 days by microbroth dilution method).
Format: functional
For `CCOc1cccc2cc(-c3cc4c(cc3F)c(=O)c(C(=O)O)cn4CC)c(=O)oc12`, the MIC was 1.5 µg/mL (≈ 3.54 µM).
`CCn1cc(C(=O)O)c(=O)c2cc(F)c(-c3cc4cc(C(C)(C)C)cc(C(C)(C)C)c4oc3=O)cc21` was tested, and the MIC was 3.1 µg/mL (≈ 6.31 µM).
With `CCn1cc(C(=O)O)c(=O)c2cc(F)c(-c3cc4cc(Br)ccc4oc3=O)cc21` the MIC was 6.2 µg/mL (≈ 13.5 µM).
